How the values were obtained:
Assay in all cases: relative viability (nuclei count vs DMSO), 5 days (fraction); higher = more cells survive
[1] = compound: CN1C=C(C2=CC=CC=C21)/C=C\3/C4=C(C=CC=N4)NC3=O + Cc1cc(Nc2cc(N3CCN(C)CC3)nc(Sc3ccc(NC(=O)C4CC4)cc3)n2)n[nH]1 [Tozasertib] (partner 0.1 µM)
How it was run: (§1)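 Relative viability equals treated-well nuclei counts divided by vehicle-well nuclei counts. Counts came from 4× images of lung cancer cell lines grown in 1536-well plates for 5 days after pin-tool dosing on the day after seeding. Dosing used one drug alone or a fixed anchor-drug dose plus five library-drug doses (not always all listed) in √10 steps, and values are medians of duplicate plates.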

Trametinib + Pictilisib = compound: CC(=O)Nc1cccc(-n2c(=O)n(C3CC3)c(=O)c3c(Nc4ccc(I)cc4F)n(C)c(=O)c(C)c32)c1 [Trametinib] + CS(=O)(=O)N1CCN(Cc2cc3nc(-c4cccc5[nH]ncc45)nc(N4CCOCC4)c3s2)CC1 [Pictilisib] (partner 1 µM)
How it was run: as §1

Trametinib + Olaparib = compound: CC(=O)Nc1cccc(-n2c(=O)n(C3CC3)c(=O)c3c(Nc4ccc(I)cc4F)n(C)c(=O)c(C)c32)c1 [Trametinib] + O=C(c1cc(Cc2n[nH]c(=O)c3ccccc23)ccc1F)N1CCN(C(=O)C2CC2)CC1 [Olaparib] (partner 8 µM)
How it was run: as §1

[2] = compound: CN1C=C(C2=CC=CC=C21)/C=C\3/C4=C(C=CC=N4)NC3=O + CS(=O)(=O)N1CCN(Cc2cc3nc(-c4cccc5[nH]ncc45)nc(N4CCOCC4)c3s2)CC1 [Pictilisib] (partner 1 µM)
How it was run: as §1

| Cell Line | relative viability ([1]; first compound 0.02 µM) | relative viability ([1]; first compound 0.06325 µM) | relative viability ([1]; first compound 0.6325 µM) | relative viability ([1]; first compound 2 µM) | relative viability (Trametinib + Pictilisib; first compound 0.0025 µM) | relative viability (Trametinib + Pictilisib; first compound 0.007906 µM) | relative viability (Trametinib + Pictilisib; first compound 0.025 µM) | relative viability (Trametinib + Pictilisib; first compound 0.07906 µM) | relative viability (Trametinib + Pictilisib; first compound 0.25 µM) | relative viability (Trametinib + Olaparib; first compound 0.0025 µM) | relative viability (Trametinib + Olaparib; first compound 0.007906 µM) | relative viability (Trametinib + Olaparib; first compound 0.025 µM) | relative viability (Trametinib + Olaparib; first compound 0.07906 µM) | relative viability (Trametinib + Olaparib; first compound 0.25 µM) | relative viability ([2]; first compound 0.02 µM) | relative viability ([2]; first compound 0.06325 µM) | relative viability ([2]; first compound 0.6325 µM) | relative viability ([2]; first compound 2 µM) | relative viability ([1]; first compound 0.2 µM) | relative viability ([2]; first compound 0.2 µM) |
| --- | --- | --- | --- | --- | --- | --- | --- | --- | --- | --- | --- | --- | --- | --- | --- | --- | --- | --- | --- | --- |
| NCI-H650 | 0.643 | 0.674 | 0.829 | 0.757 | 1.05 | 1.18 | 0.998 | 0.919 | 0.565 | 0.444 | 0.434 | 0.568 | 0.649 | 0.542 | 0.826 | 0.922 | 0.784 | 0.911 | – | – |
| NCI-H727 | 0.554 | 0.447 | 0.636 | 0.633 | 0.333 | 0.207 | 0.176 | 0.149 | 0.25 | 0.714 | 0.617 | 0.565 | 0.363 | 0.398 | 0.363 | 0.304 | 0.299 | 0.484 | 0.59 | 0.208 |
| NCI-H1993 | 0.565 | 0.565 | 0.652 | 0.559 | 0.864 | 0.913 | 0.792 | 0.806 | 0.897 | 0.961 | 0.834 | 0.789 | 0.542 | 0.537 | 0.743 | 0.772 | 0.809 | 0.804 | 0.552 | 0.826 |
| EMC-BAC-2 | 0.315 | 0.295 | 0.281 | 0.374 | 0.517 | 0.429 | 0.379 | 0.423 | 0.331 | 0.638 | 0.623 | 0.617 | 0.69 | 0.476 | 0.499 | 0.521 | 0.521 | 0.554 | 0.301 | 0.524 |
| NCI-H2087 | 0.227 | 0.245 | 0.189 | 0.212 | 0.846 | 0.344 | 0.26 | 0.237 | 0.382 | 0.463 | 0.379 | 0.249 | 0.123 | 0.18 | 0.942 | 0.833 | 0.793 | 0.951 | 0.249 | 0.769 |
| NCI-H441 | 0.67 | 0.607 | 0.572 | 0.567 | 0.44 | 0.306 | 0.234 | 0.214 | 0.163 | 0.601 | 0.614 | 0.535 | 0.483 | 0.389 | 0.477 | 0.426 | 0.402 | 0.595 | 0.651 | 0.474 |
| LXF-289 | 0.14 | 0.195 | 0.213 | 0.182 | 0.674 | 0.618 | 0.424 | 0.388 | 0.264 | 1.01 | 0.906 | 0.803 | 0.756 | 0.665 | 0.811 | 0.764 | 0.77 | 0.806 | 0.217 | 0.793 |
| NCI-H661 | 0.344 | 0.349 | 0.4 | 0.36 | 0.377 | 0.426 | 0.222 | 0.273 | 0.257 | 0.718 | 0.704 | 0.633 | 0.637 | 0.564 | 0.399 | 0.418 | 0.339 | 0.375 | 0.365 | 0.325 |
| PC-3 [JPC-3] | 0.863 | 0.897 | 0.746 | 0.913 | 0.765 | 0.474 | 0.484 | 0.438 | 0.44 | 1.12 | 0.927 | 0.982 | – | 0.699 | 0.703 | 0.691 | 0.778 | 0.758 | 0.92 | 0.665 |
| HCC-366 | 0.09 | 0.109 | 0.0587 | 0.0526 | 0.09 | 0.138 | 0.102 | 0.1 | 0.0818 | 0.294 | 0.293 | 0.206 | 0.145 | 0.0982 | 0.114 | 0.121 | 0.113 | 0.104 | 0.0765 | 0.118 |
| NCI-H1651 | 0.799 | 0.673 | 0.698 | 0.728 | 0.5 | 0.488 | 0.406 | 0.49 | 0.389 | 0.197 | 0.178 | 0.182 | 0.179 | 0.161 | 0.495 | 0.706 | 0.524 | 0.728 | 0.664 | 0.628 |
| NCI-H1355 | 0.52 | 0.599 | 0.412 | 0.368 | 0.339 | 0.313 | 0.199 | 0.228 | 0.214 | 0.663 | 0.686 | 0.552 | 0.48 | 0.39 | 0.365 | 0.332 | 0.238 | 0.372 | 0.523 | 0.287 |
| LC-2-ad | 0.43 | 0.435 | 0.453 | 0.492 | 0.412 | 0.444 | 0.237 | 0.216 | 0.195 | 0.683 | 0.663 | 0.706 | 0.695 | 0.604 | 0.356 | 0.475 | 0.446 | 0.401 | 0.482 | 0.434 |
| NCI-H1944 | 0.234 | 0.246 | 0.234 | 0.21 | 0.333 | 0.307 | 0.253 | 0.278 | 0.262 | 0.39 | 0.343 | 0.341 | 0.288 | 0.236 | 0.323 | 0.326 | 0.294 | 0.314 | – | – |
| HCC-827 | 0.378 | 0.405 | 0.53 | 0.395 | 0.949 | 0.986 | 0.959 | 0.666 | 0.627 | 0.612 | 0.571 | 0.563 | 0.507 | 0.337 | 1.07 | 0.996 | 0.772 | 1 | – | – |
| COR-L23 | 0.21 | 0.187 | 0.162 | 0.151 | 0.72 | 0.756 | 0.555 | 0.439 | 0.308 | 0.422 | 0.473 | 0.43 | 0.392 | 0.261 | 0.721 | 0.707 | 0.737 | 0.887 | 0.222 | 0.781 |
